# Reference: US9358305B2, “Targeted carriers for drug delivery across the gastrointestinal epithelium” (University of Maryland, College Park, priority 2009, dated 2016)
# Ends that are not written are not given here.
# B1: free ASM: recombinant acid sphingomyelinase, an enzyme that binds to mannose-6-phosphate receptor (protein, UniProt P17405 47-631, looked up)
# Sphingomyelin …: LALSDSRVLWAPAEAHPLSPQGHPARLHRIVPRLRDVFGWGNLTCPICKGLFTAINLGLKKEPNVARVGSVAIKLCNLLKIAPPAVCQSIVHLFEDDMVEVWRRSVLSPSEACGLLLGSTCGHWDIFSSWNISLPTVPKPPPKPPSPPAPGAPVSRILFLTDLHWDHDYLEGTDPDCADPLCCRRGSGLPPASRPGAGYWGEYSKCDLPLRTLESLLSGLGPAGPFDMVYWTGDIPAHDVWHQTRQDQLRALTTVTALVRKFLGPVPVYPAVGNHESTPVNSFPPPFIEGNHSSRWLYEAMAKAWEPWLPAEALRTLRIGGFYALSPYPGLRLISLNMNFCSRENFWLLINSTDPAGQLQWLVGELQAAEDRGDKVHIIGHIPPGHCLKSWSWNYYRIVARYENTLAAQFFGHTHVDEFEVFYDEETLSRPLAVAFLAPSATTYIGLNPGYRVYQIDGNYSGSSHVVLDHETYILNLTQANIPGAIPHWQLLYRARETYGLPNTLPTAWHNLVYRMRGDMQLFQTFWFLYHKGHPPSEPCGTPCRLATLCAQLSARADSPALCRHLMPDGSLPEAQSLWPRPLFC
# How the values were obtained:
# mouse endothelial cells = assay: Endocytosis of peptide phages by mouse endothelial cells; type: cell-based; settings: for Internalization of phage viruses by endothelial cells: phages expressing 5 copies of the peptide, 37° C., 1 h
# Source text: (§1) (A) ELISA measurement of the binding of 7-mer peptide expressing phage library to immobilized recombinant ICAM-1 (consisting of the two most membrane-distal Ig domains—1 and 2—of mouse ICAM-1 fused to human Fc or hFc), versus their binding to control hFc. (B) Relative specificity and (C) relative affinity of ICAM-1-targeting peptide phages, determined by ELISA from the experiment in (A). (D) Relative binding of phages expressing 7-mer peptides to native ICAM-1 expressed on the surface of HV5 mouse endothelial cells, either control or activated with TNFalpha to mimic a disease phenotype. Binding was determined by microscopy using a fluorescently-labeled antibody to the phage capsid. The line in the graph indicates the level of binding of A1 phage to 293 cells, which are voided of ICAM-1-expression. (E, F) Endocytosis (1 h, 37° C.) of phages expressing 7-mer peptides by control mouse endothelial cells (E) or mouse endothelial cells incubated in the presence of 3 mM amiloride (F) was estimated by microscopy after staining surface-located phages with a Texas red-labeled antibody to the viral capsid, following by cell permeabilization and staining of all (surface and internalized) phages using a FITC-labeled antibody to the viral capsid. (G) Binding of FITC-labeled anti-ICAM polystyrene nanocarriers to human endothelial cells was evaluated by fluorescence microscopy after incubation with cells in the absence (100% level) or presence of anti-ICAM antibody, ICAM-1-targeting synthetic peptides, or peptides with their scramble sequence (e.g., A1sc).
# HUVEC = assay: Lysosomal transport of peptide-coated carriers in HUVEC; type: cell-based, human; settings: for Binding, internalization and lysosomal transport of carriers: 37° C., co-localization with dextran-labeled lysosomes, carriers coated with the peptide
# Method: (§2) (A) The peptide γ3 was absorbed on the surface of 100 nm FITC-labeled polystyrene carriers and the resulting products were incubated for 15 min on nitrocellulose-immobilized albumin vs human or mouse ICAM-1 chimeras containing ICAM-1-Ig domains 1 and 2 fused to human Fc sequence. The membranes were washed and analyzed by fluorescence microscopy to quantify the number of carriers bound per area. Data are expressed relative to non-specific binding of γ3 carriers to albumin controls (dotted line). A comparison to binding of anti-ICAM carriers is provided (dashed line). (B) Binding of FITC-labeled polystyrene carriers coated by absorption with the peptide γ3 and recombinant acid sphingomyelinase (ASM, a therapeutic enzyme) to activated HUVEC (bars) vs ICAM-1-negative 293 cells (dotted line) was quantified by fluorescence microscopy after 1 h incubation at 37° C., in the absence or presence of excess γ3, anti-ICAM, γ3 scramble peptide, or mannose 6 phosphate (M6P). Data is shown relative to HUVEC binding of γ3/ASM carriers (134±11 particles/cell). (C) HUVEC lysosomes were labeled for 2 h with Texas-red dextran at 37° C. Cells were then incubated for 30 min at 37° C. with FITC-labeled γ3/ASM carriers, non-bound carriers were washed, and incubation was continued up to 1, 2, or 3 h. Co-localization of FITC carriers with Texas-red dextran-lysosomes was quantified by fluorescence microscopy. (D) Comparison of lysosomal transport of 100 nm FITC-labeled polystyrene carriers coated with either ICAM-1-targeting peptide γ3 vs its derivatives 2γ3 and 3γ3. (E) Activated HUVEC were incubated for 30 min at 37° C. in the presence of FITC-labeled 2γ3 polystyrene carriers after 15 min pre-treatment with 3 mM amiloride to block ICAM-1-mediated endocytosis, or 0.1 μM PMA to activate PKC and promote ICAM-1-mediated endocytosis. Co-localization of FITC 2γ3 carriers with Texas red dextran-labeled lysosomes was assessed by microscopy 3 h post-internalization. Mean±SEM; n=2 assays. **p<0.005, ***p<0.001, by student's t test.
# Caco-2 cells = assay: Endocytosis of anti-ICAM carriers by Caco-2 cells; type: cell-based, human; settings: TNF-α-treated Caco-2, 1 h, 37° C.
# Method: Furthermore the ability of anti-ICAM carriers to be endocytosed by Caco-2 cells was examined. FITC-labeled anti-ICAM carriers were first incubated with cells for 30 min to allow binding, then non-bound carriers were washed and cells were incubated for varying times to allow carrier uptake. After cell fixation, surface-bound carriers were stained with Texas Red secondary antibody. […] Data are shown as means±S.E.M. (n≧20). […] Internalization was highly efficient: approximately 90% of the carriers bound to cells were internalized, which represents ˜60 carriers per cell.
# The mechanism of uptake for Caco-2 cells treated with amiloride, a known inhibitor of CAM-mediated endocytosis (Muro et al., 2003), was examined. TNF-α-treated Caco-2 cells were incubated with FITC-labeled anti-ICAM carriers in the presence or absence of amiloride (1 h, 37° C.), and surface-bound carriers were stained with TxR goat anti-mouse. […] Upper panels of FIG. 14A show total carriers associated to cells, whereas lower panels show the fraction of surface-bound, non-internalized carriers. (Magnification bar=10 μm.) The fluorescence microscopy images were analyzed for the ratio of internalized carriers to surface-bound carriers, expressed as % internalization and normalized to the control. (FIG. 14B; Data are shown as means±S.E.M. (n≧20). *, p<0.001 by Student's t test.)
# Caco-2 monolayers = assay: Transport of 125I-labelled carriers across Caco-2 monolayers on permeable inserts; type: in vitro ADME, human
# [1] = molecular target: T1, native ICAM-1 expressed by activated HUVEC (Homo sapiens, UniProt P05362); assay: Binding of γ3/ASM carriers to activated HUVEC, with or without excess competitor; type: cell-based; settings: 1 h, 37° C.
# T1 construct: endogenous in cells
# T1 sequence (P05362 28-532): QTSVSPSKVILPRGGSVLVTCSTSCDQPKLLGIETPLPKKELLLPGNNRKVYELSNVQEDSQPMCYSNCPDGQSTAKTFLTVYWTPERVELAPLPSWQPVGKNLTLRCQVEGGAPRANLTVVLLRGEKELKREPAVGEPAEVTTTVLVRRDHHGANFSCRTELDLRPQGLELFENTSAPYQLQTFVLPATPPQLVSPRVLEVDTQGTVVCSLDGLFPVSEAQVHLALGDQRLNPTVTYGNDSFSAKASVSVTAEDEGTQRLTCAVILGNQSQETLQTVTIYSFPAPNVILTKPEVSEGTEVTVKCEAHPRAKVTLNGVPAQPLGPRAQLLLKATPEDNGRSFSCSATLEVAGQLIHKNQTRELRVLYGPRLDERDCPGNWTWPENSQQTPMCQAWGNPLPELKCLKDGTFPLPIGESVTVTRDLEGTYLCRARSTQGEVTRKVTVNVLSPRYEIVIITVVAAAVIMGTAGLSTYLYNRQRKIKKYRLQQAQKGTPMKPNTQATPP
# Method: as §2, with “Cells were then incubated for 30 min at 37° C. with FITC-labeled γ3/ASM carriers, non-bound carriers were washed, and incubation was continued up to 1, 2, or 3 h.” left out, “(D) Comparison of lysosomal transport of 100 nm FITC-labeled polystyrene carriers coated with either ICAM-1-targeting peptide γ3 vs its derivatives 2γ3 and 3γ3. (E) Activated HUVEC were incubated for 30 min at 37° C. in the presence of FITC-labeled 2γ3 polystyrene carriers after 15 min pre-treatment with 3 mM amiloride to block ICAM-1-mediated endocytosis, or 0.1 μM PMA to activate PKC and promote ICAM-1-mediated endocytosis.” left out, “Mean±SEM; n=2 assays. **p<0.005, ***p<0.001, by student's t test.” left out
# ICAM-1 on HUVEC = assay: Leukocyte transmigration across TNF-activated HUVEC monolayer in transwell; type: cell-based, human; settings: compared to albumin, scrambled peptide and LB2 controls
# Method: Human endothelial cells (human umbilical vein endothelial cells (HUVECs)) were grown until formation of a continuous confluent monolayer in a transwell filter located between upper and lower chambers. The cells were then treated with tumor necrosis factor alpha to mimic inflammatory activation of endothelial cells and SDF1a was added to the lower chamber to generate a gradient to attract white blood cells, as during inflammation. Lymphocytes isolated from human peripheral blood were activated with interleukin 2 and added to the upper chamber above endothelial cells in the absence (control) or presence of ICAM-1-targeting peptides A1, B7, B8, B9, B10, or D6. Albumin or a peptide of scrambled sequence were used as negative controls which should not block inflammatory transmigration of leukocytes across endothelial cells. The anti-ICAM antibody LB2, which is known to block leukocyte adhesion to ICAM-1, was used as a positive control which should block such transmigration.
# Leukocytes which transmigrated to the lower chamber below endothelial cells were counted to assess their transmigration. FIG. 9 provides a graph of the resulting leukocyte transmigration as a percentage of the control. The peptides annotated with an asterisk in FIG. 9 indicate that the peptide was effective in statistically significant blockage of leukocyte transmigration across endothelial cells.
# [2] = molecular target: T2, ICAM-1 on human endothelial cells (Homo sapiens, UniProt P05362); assay: Competition of binding of anti-ICAM nanocarriers to human endothelial cells by synthetic peptides; type: cell-based
# T2 construct: endogenous in cells
# T2 sequence (P05362 28-532): as above
# Source text: as §1
# [3] = molecular target: T3, ICAM-1 in the vascular endothelium (Mus musculus, UniProt P13597); assay: Lodging of fibrin microemboli in the vasculature of mice; type: in vivo
# T3 construct: from tissue
# T3 sequence (P13597 28-537): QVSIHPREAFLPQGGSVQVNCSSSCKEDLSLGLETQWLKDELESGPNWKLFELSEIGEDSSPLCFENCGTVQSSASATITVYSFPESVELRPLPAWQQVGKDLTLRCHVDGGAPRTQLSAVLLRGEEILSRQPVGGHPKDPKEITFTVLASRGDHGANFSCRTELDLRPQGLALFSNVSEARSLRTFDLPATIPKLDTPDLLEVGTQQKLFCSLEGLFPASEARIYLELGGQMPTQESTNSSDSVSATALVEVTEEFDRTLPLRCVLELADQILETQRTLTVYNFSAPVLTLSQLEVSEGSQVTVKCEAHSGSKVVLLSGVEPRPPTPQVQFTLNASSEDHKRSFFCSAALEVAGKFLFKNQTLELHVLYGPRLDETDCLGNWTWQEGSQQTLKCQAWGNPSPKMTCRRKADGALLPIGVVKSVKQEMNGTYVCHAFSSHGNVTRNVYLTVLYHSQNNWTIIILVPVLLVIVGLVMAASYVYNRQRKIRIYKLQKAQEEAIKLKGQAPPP
# Method: C57Bl/6 mice were first injected intravenously with γ3 to block ICAM-1 in the vascular endothelium in organs. Alternatively, injections of saline or anti-ICAM were used as controls. Fifteen minutes later the mice were injected with fibrin clots (microemboli around 3-5 micrometer) generated in the lab by established procedures.
# Following microemboli administration, the microemboli amounts were measured in a gamma counter and calculated as percent of injected dose in circulation or localization ratio (the percent injected dose/gram in an organ divided by percent injected dose/gram in blood). FIG. 10(A) is a graphical illustration of the amount of microemboli in circulation in blood, as evaluated at 1 min after injection and FIG. 10(B) is a graphical illustration of the amount of microemboli lodging in the vasculature of the kidneys and spleen at 15 min after injection.
# ICAM-1 = molecular target: T4, ICAM-1 (Mus musculus, UniProt P13597); assay: Lung uptake (30 min) of radiolabeled ASM vs anti-ICAM carriers injected iv in mice; type: in vivo; settings: 30 min after iv injection
# T4 construct: from tissue
# T4 sequence (P13597 28-537): as above
# Method: (A) Lung uptake (30 min) of ^125I-labeled anti-transferrin receptor (targeted to the clathrin route), anti-GM1 (anti-ganglioside GM1, targeted to caveoli), or anti-ICAM, injected intravenously in mice as free antibodies or absorbed on the surface of 100 nm polystyrene particles (prototype carrier final size=180 nm). Particles had ^125I-labeled IgG as a tracer. Dashed line=control unspecific IgG carriers. (B) Lung uptake (30 min) of radiolabeled acid sphingomyelinase, a recombinant enzyme which binds to mannose 6 phosphate (M6P) receptor, vs anti-ICAM polystyrene carriers in control C57Bl/6 mice vs diseased ASMKO mice. Data is normalized per gram due to larger lung size in ASMKO mice. […] […]. […] (E) FITC-labeled anti-ICAM carriers of diverse geometry (anti-ICAM polystyrene spheres from 0.1 to 5 μm or 0.1×1×3 μm elliptical disks, and polymorphous anti-ICAM conjugates formed by biotin-streptavidin crosslinking were incubated with TNFα activated human umbilical vein endothelial cells (HUVEC) for 1 h at 37° C. The cells were then washed and fixed, cell surface-located carriers were differentially stained with a texas red-conjugated secondary antibody, and the samples were analyzed by fluorescence microscopy to quantify the percent of carriers internalized by the cells. Data are mean±standard error of the mean for n≧4 mice or ≧20 cells. *p<0.05, **p<0.005, ***p<0.001 by student's t test.
molecule,measurement,setting,value
"N=C(N)NC(=O)c1nc(Cl)c(N)nc1N [amiloride, reference compound]",inhibition at 3000 µM,"mouse endothelial cells; Mus musculus, Endothelial cell, phages A1, B7, B9, D6, 3 mM amiloride, read-out: Inhibition of phage internalization by amiloride",41 to 59%
same,Effect of modulator on endocytic transport of peptide carriers,HUVEC; 3 mM amiloride or 0.1 μM PMA pre-treatment,inhibited
same,Uptake of anti-ICAM carriers in presence of amiloride,Caco-2 cells,20 % of the control value
same,Reduction of transport of 125I-anti-ICAM carriers by amiloride,Caco-2 monolayers; 3 h,about 50%
"O=C[C@@H](O)[C@@H](O)[C@H](O)[C@H](O)COP(=O)(O)O [mannose-6-phosphate, reference compound]",Effect of excess free competitor in the media on targeting of γ3/ASM carriers to endothelial cells,[1],did not compete
FSPHSRT (phage display-derived peptide B9) [also tested as phage clone],Leukocyte transmigration across endothelial cells,ICAM-1 on HUVEC,inhibit leukocyte transmigration
same,Inhibition of binding of anti-ICAM nanocarriers to human endothelial cells,[2],~80 % inhibition
GCKLCAQ (phage display-derived peptide D6) [also tested as phage clone],Leukocyte transmigration across endothelial cells,ICAM-1 on HUVEC,inhibit leukocyte transmigration
"GSLLSAA [B8, GSLLSAA]",Leukocyte transmigration across endothelial cells,ICAM-1 on HUVEC,inhibit leukocyte transmigration
same,Internalization of phage viruses by endothelial cells,mouse endothelial cells,not
same,Inhibition of binding of anti-ICAM nanocarriers to human endothelial cells,[2],at some extent
NNQKIVNIKEKVAQIEA (fibrinogen-derived 2-gamma-3) [2γ3],"Binding, internalization and lysosomal transport of carriers",HUVEC,similar
NNQKIVNLKEKVAQLEA (fibrinogen-derived gamma-3) [γ3],Fibrin microemboli in circulation,[3]; 1 min after microemboli injection,remain in circulation
same,Microemboli lodging in organs,"[3]; kidneys and spleen, 15 min after injection",attenuating microemboli lodging in organs
same,Effect of excess free competitor in the media on targeting of γ3/ASM carriers to endothelial cells,[1],suppressed
NNQKLVNIKEKVAQIEA (fibrinogen-derived 3-gamma-3) [3γ3],"Binding, internalization and lysosomal transport of carriers",HUVEC,similar
YPFLPTA (phage display-derived peptide B10) [also tested as phage clone],Leukocyte transmigration across endothelial cells,ICAM-1 on HUVEC,inhibit leukocyte transmigration
same,Internalization of phage viruses by endothelial cells,mouse endothelial cells,not
YQATPLP (phage display-derived peptide B7) [also tested as phage clone],Leukocyte transmigration across endothelial cells,ICAM-1 on HUVEC,inhibit leukocyte transmigration
"^125I-albumin: radiolabelled bovine serum albumin, standard for passive transport",Papp A→B,Caco-2 monolayers; Caco-2,0.03 ± 20000 ×10⁻⁶ cm/s
B1,"Lung accumulation, fold lower than ICAM-1 targeting",ICAM-1,10 fold
